The source of these data is patent US20250074955A1, “MODIFIED LOW MOLECULAR WEIGHT GLUTENIN SUBUNIT AND USES THEREOF” (Ukko Inc., priority 2022, published 2025).

Where no end group is shown, it is not given here.

For one assay, the target named is HLA-DQ2.5 (Homo sapiens, UniProt P01909+P01920, A45G/A70V/D89A/E106A/E77G/E98D/H199R/L107V/N214S/P84L/P87L/T103K/T109R/T172A/T60S/V78E/V99I/Y58L/Y62S/Y69I/Y79F). Put plainly: MHC class II binding competition assay with radiolabeled probe peptide. The conditions noted are these: competition with MHC class II bound radiolabeled probe peptide, purified MHC, 2-4 days incubation.

The target in the next assay is HLA-DQ8 (Homo sapiens, UniProt P01909+P01920, A209T/A45G/C70Q/D89A/DUP78-78/E183D/E77G/F237L/G63E/H199R/I129T/K197E/L178F/L74F/L98V/Q57E/Q76R/S185I/S97I/T217I/T49S/V73L/Y58L). The assay is described as above. Conditions: competition with MHC class II bound radiolabeled probe peptide, purified MHC, 2-4 days incubation.
The target in the next assay is T1, HLA-DQ7.5 (Homo sapiens, UniProt P01909+P01920).
T1 construct: made in house
Described as above. Conditions: competition with MHC class II bound radiolabeled probe peptide, purified MHC, 2-4 days incubation. On the procedure: In-vitro testing of modified gluten peptides was performed by a Major histocompatibility complex (MHC class II) binding assay (Sidney J. et. al. Current protocols in immunology 100.1 (2013)). Briefly, competition assays using different concentrations of WT and modified low molecular weight glutenin subunit (LMW-GS) peptides were conducted by diluting the peptides in NP40 buffer, and incubation for 2-4 days with purified MHC and a radiolabeled known MHC binding peptide (peptide probe). MHC class II molecules were purified by affinity chromatography, and peptides were radiolabeled using the chloramine T method. After the incubation period, the bound and unbound radiolabeled species were separated, and their relative amounts were determined by either size-exclusion gel-filtration chromatography or monoclonal antibody capture of MHC. The percentage of bound radioactivity was then determined. For each modified peptide, IC50 of WT and modified peptide were calculated. The known gluten peptide epitopes were analyzed for MHC binding as a positive control, both in the non-deamidated and in the deamidated form.
Tables I and II list the measured IC50 values from competition assays between the specified peptides and an MHC class II bound probe peptide.

The next assay deals with HLA-DQ2.2 (Homo sapiens, UniProt P01909+P01920, A45G/A70V/C70K/D167G/D89A/E106A/E183D/E77G/E98D/F237L/F77L/G63E/H199R/I129T/K197E/L107V/L178F/L74F/N214S/P84L/P87L/Q57E/Q76R/R75H/S185I/S97I/T103K/T109R/T172A/T60S/V73L/V78E/V99I/Y48F/Y58L/Y62S/Y69I/Y79F). Described as above. Conditions: competition with MHC class II bound radiolabeled probe peptide, purified MHC, 2-4 days incubation.

In a further assay the target is HLA-DQ8 (human). Put plainly: competition with radiolabeled probe peptide, purified MHC class II.
The target of the next assay is HLA-DQ2.2 (human). Described as above.
Another assay has as its target HLA-DQ2.5 (human). The assay is described as above.

In general, IC50 refers to the concentration at which inhibition is half-maximal. High values mean lower potency, low ones higher potency. QQSPFPEQEQQHQQL [SEQ ID NO: 183]: the 50% inhibitory concentration (IC50) at HLA-DQ2.5 is 32.4 µM; at HLA-DQ8, 39.9 µM; at HLA-DQ7.5 it was greater than 40 µM; at HLA-DQ2.2, greater than 40 µM.
In the case of QQPPFSKQEQQQPIL [SEQ ID NO: 71], the IC50 on HLA-DQ2.5 was greater than 40 µM; on HLA-DQ8 it was 29.8 µM; at HLA-DQ7.5, greater than 40 µM; at HLA-DQ2.2, greater than 40 µM.
QQSPFSRQEKSPFSQ [SEQ ID NO: 78]: the IC50 on HLA-DQ2.5, at HLA-DQ8, on HLA-DQ7.5 and at HLA-DQ2.2 was greater than 40 µM throughout.
Take QSPFSRQQKSPFSQQ [SEQ ID NO: 80]: the IC50 on HLA-DQ2.5, at HLA-DQ8, at HLA-DQ7.5 and on HLA-DQ2.2 was greater than 40 µM throughout.
For the molecule QPPDSHQQHSPGSQQ [SEQ ID NO: 84], the IC50 on HLA-DQ2.5, on HLA-DQ8, on HLA-DQ7.5 and at HLA-DQ2.2 was greater than 40 µM in each case.
On to QQPPFPRQHQQFPQQ [SEQ ID NO: 74], for which the IC50 at HLA-DQ2.5, at HLA-DQ8, on HLA-DQ7.5 and at HLA-DQ2.2 was greater than 40 µM each time.
For QPPSSEQQHSPPSQQ [SEQ ID NO: 81], the IC50 was greater than 40 µM at HLA-DQ2.5, 31.9 µM at HLA-DQ8, greater than 40 µM on HLA-DQ7.5 and 39.8 µM at HLA-DQ2.2.
For QQPPFSHQRPPFSQQ [SEQ ID NO: 70], the IC50 on HLA-DQ2.5 is greater than 40 µM; on HLA-DQ8, 39.1 µM; at HLA-DQ7.5 it was greater than 40 µM; at HLA-DQ2.2 it was greater than 40 µM.
On to QQPPDSHQEHSPGPQ [SEQ ID NO: 187], for which the IC50 on HLA-DQ2.5, on HLA-DQ8, on HLA-DQ7.5 and on HLA-DQ2.2 was greater than 40 µM throughout.
Regarding QGPPFSKQTQPVIPQ [SEQ ID NO: 72], the 50% inhibitory concentration (IC50) on HLA-DQ2.5, at HLA-DQ8, at HLA-DQ7.5 and at HLA-DQ2.2 was greater than 40 µM throughout.
For the molecule QPSFSRQQKQPQSQQ [SEQ ID NO: 86], the IC50 at HLA-DQ2.5, on HLA-DQ8, on HLA-DQ7.5 and at HLA-DQ2.2 was greater than 40 µM each time.
Take QQPFPEQQRSQFSQQ [SEQ ID NO: 85]: the IC50 at HLA-DQ2.5 is greater than 40 µM; on HLA-DQ8 it was 35.8 µM; at HLA-DQ7.5 it was greater than 40 µM; on HLA-DQ2.2, greater than 40 µM.
The molecule QQPPSSEQEHSPPSQ [SEQ ID NO: 79] displayed an IC50 on HLA-DQ7.5 greater than 40 µM.
For GPPFSKQTEPVISQQ [SEQ ID NO: 186], the IC50 was greater than 40 µM on HLA-DQ2.5, 38.2 µM on HLA-DQ8, greater than 40 µM on HLA-DQ7.5 and greater than 40 µM on HLA-DQ2.2.
For the molecule QQPAFSRQHQPSLPQ [SEQ ID NO: 73], at HLA-DQ7.5, the IC50 is greater than 40 µM.
As for QQPFPEQQRSQFSQQ [… (SEQ ID NO: 85)], in the assay with HLA-DQ8 (human), the IC50 is 35.8 µM.
As for QPPSSEQQHSPPSQQ [… (SEQ ID NO: 81)], the IC50 worked out at 31.9 µM with HLA-DQ8 (human) and 39.8 µM with HLA-DQ2.2 (human).
As for QPPFSEQQESPFSQQ [… (SEQ ID NO: 69)], the IC50 was determined as 1.14 µM with HLA-DQ8 (human) and 0.158 µM with HLA-DQ2.5 (human).
For QQPPFSEQEQPSSQQ [… (SEQ ID NO: 77)], the IC50 in the assay with HLA-DQ8 (human) was found to be 31.5 µM; in the assay with HLA-DQ2.5 (human), 32.3 µM.
The molecule QPFFSHQQRSGFSQQ [… (SEQ ID NO: 83)] yielded a concentration for half-maximal inhibition (IC50) with HLA-DQ8 (human) of 39.2 µM.
On the same count and under the same terms, the result for QSPFPEQQEQHQQLQ [… (SEQ ID NO: 185)] reads 37.9 µM.
Turning to QQPPFSKQEQQQPIL [… (SEQ ID NO: 71)], in the assay with HLA-DQ8 (human), the IC50 worked out at 29.8 µM. The IC50 values of the last two molecules are within 1.5-fold of each other.
In the assay with HLA-DQ8 (human), QQPPFSHQRPPFSQQ [… (SEQ ID NO: 70)] had an IC50 of 39.1 µM.
On the same count and under the same terms, then GPPFSKQTEPVISQQ [… (SEQ ID NO: 186)], with 38.2 µM.
Regarding QQPPFWQHQPPFSQQ [… (SEQ ID NO: 76)], the half-maximal inhibitory concentration (IC50) in the assay with HLA-DQ2.5 (human) came to 37.4 µM. That is a double-digit micromolar value.
Turning to QQSPFPEQEQQHQQL [… (SEQ ID NO: 183)], the IC50 was 39.9 µM with HLA-DQ8 (human) and 32.4 µM with HLA-DQ2.5 (human).
In turn, QQPAFSRQHQPSLPQ [… (SEQ ID NO: 73)] yielded an IC50 with HLA-DQ2.5 (human) of 30.4 µM. This lies in the double-digit micromolar range.
